From patent publication US20260199346A1, “METHODS OF TREATING SOLID TUMORS DRIVEN BY HER2 ALTERATIONS WITH TUCATINIB IN COMBINATION WITH AN ANTI-HER2 ANTIBODY” (Seagen Inc., priority 2020, published 2026) come the findings set out here.

For experiment [1], the target named is T1, HER2 (Homo sapiens, UniProt P04626). Nature of the experiment: cellular signaling assays, selectivity for HER2 compared to EGFR. The format is cell-based. Set-up: four different HER2-amplified breast cancer cell lines (BT-474, SK-BR-3, HCC-1419, and UACC-893); endogenous in cells; host or cells: BT-474, SK-BR-3, HCC-1419, UACC-893. The source says:
(§1) Tucatinib inhibits the HER2-driven mitogen-activated protein and PI3 kinase signaling pathways, resulting in inhibition of tumor cell proliferation, survival, and metastasis.

In experiment [2] the target is T1, HER2. Nature of the experiment: HER2 total protein levels by western blot analysis (WES system), normalized against GAPDH. The class given is cell-based. Set-up: four different HER2-amplified breast cancer cell lines (BT-474, SK-BR-3, HCC-1419, and UACC-893); endogenous in cells; host or cells: BT-474, SK-BR-3, HCC-1419, UACC-893. To be noted: 30 nM or 100 nM tucatinib, 24 hours and 48 hours; BT-474, SK-BR-3, HCC-1419 and UACC-893 HER2-amplified breast cancer cell lines. Here is the method: (§2) Protein lysates were generated from cells harvested at each time point, HER2 total protein levels were determined by western blot analysis using a WES system, and normalized against GAPDH levels as a loading control. As shown in FIG. 1A-1D, in all four cell lines tested, HER2 total protein levels increased after treatment with tucatinib relative to untreated cell lines. Total HER2 protein levels are shown as a percentage of the total HER2 protein levels of untreated cells. Plasma membrane-bound levels of HER2 were determined by quantitative FACS (qFACS) analysis after exclusion of dead cells. As shown in FIG. 1E-1H, treatment with either 30 nM or 100 nM increased plasma membrane-bound HER2 protein levels in all four cell lines relative to untreated cell lines. Plasma membrane-bound HER2 protein levels are shown as a percentage of the plasma membrane-bound HER2 protein levels of untreated cells.
In general terms: A western blot detects proteins with antibodies after separation by electrophoresis.

For experiment [3], the target named is T1, HER2. Briefly: inhibition of HER2 in vitro. The format is biochemical.
Description: as §1

The target of experiment [4] is T1, HER2. Briefly: HER2 internalization assay using Trastuzumab-QF (lysosomal processing). As to conditions: tucatinib 100 nM; SK-BR-3 cells; Trastuzumab-QF in the presence of chloroquine. The format is cell-based. Here is the method: (§3) To probe the dynamics of HER2 at the cell surface upon binding to antibody therapeutics in the presence or absence of tucatinib (100 nM), SK-BR-3 cells were incubated with fluorescently-labeled trastuzumab (Trastuzumab-AF488) to mark HER2 at the cell surface. Excess antibody was washed out. Cells were imaged at time points spanning 72 hours to observe internalization of surface-bound antibody. […] Concurrent experiments were conducted with trastuzumab labeled with QF (Trastuzumab-QF) […], a quenched fluorophore which fluoresces upon lysosomal processing and can serve as a proxy for antibody catabolism.

For experiment [5], the target named is T1, HER2. Nature of the experiment: plasma membrane-bound HER2 levels by quantitative FACS (qFACS). The class given is cell-based. Set-up: four different HER2-amplified breast cancer cell lines (BT-474, SK-BR-3, HCC-1419, and UACC-893); endogenous in cells; host or cells: BT-474, SK-BR-3, HCC-1419, UACC-893. As to conditions: 30 nM or 100 nM tucatinib, 24 hours and 48 hours; BT-474, SK-BR-3, HCC-1419 and UACC-893 HER2-amplified breast cancer cell lines. As to the method: as §2

Experiment [6] deals with T1, HER2. Nature of the experiment: HER2 internalization assay using Trastuzumab-AF488. To be noted: tucatinib 100 nM, SK-BR-3 cells, imaged at time points spanning 72 hours. The class given is cell-based. As to the method:
as §3

T1 sequence (P04626 23-1255): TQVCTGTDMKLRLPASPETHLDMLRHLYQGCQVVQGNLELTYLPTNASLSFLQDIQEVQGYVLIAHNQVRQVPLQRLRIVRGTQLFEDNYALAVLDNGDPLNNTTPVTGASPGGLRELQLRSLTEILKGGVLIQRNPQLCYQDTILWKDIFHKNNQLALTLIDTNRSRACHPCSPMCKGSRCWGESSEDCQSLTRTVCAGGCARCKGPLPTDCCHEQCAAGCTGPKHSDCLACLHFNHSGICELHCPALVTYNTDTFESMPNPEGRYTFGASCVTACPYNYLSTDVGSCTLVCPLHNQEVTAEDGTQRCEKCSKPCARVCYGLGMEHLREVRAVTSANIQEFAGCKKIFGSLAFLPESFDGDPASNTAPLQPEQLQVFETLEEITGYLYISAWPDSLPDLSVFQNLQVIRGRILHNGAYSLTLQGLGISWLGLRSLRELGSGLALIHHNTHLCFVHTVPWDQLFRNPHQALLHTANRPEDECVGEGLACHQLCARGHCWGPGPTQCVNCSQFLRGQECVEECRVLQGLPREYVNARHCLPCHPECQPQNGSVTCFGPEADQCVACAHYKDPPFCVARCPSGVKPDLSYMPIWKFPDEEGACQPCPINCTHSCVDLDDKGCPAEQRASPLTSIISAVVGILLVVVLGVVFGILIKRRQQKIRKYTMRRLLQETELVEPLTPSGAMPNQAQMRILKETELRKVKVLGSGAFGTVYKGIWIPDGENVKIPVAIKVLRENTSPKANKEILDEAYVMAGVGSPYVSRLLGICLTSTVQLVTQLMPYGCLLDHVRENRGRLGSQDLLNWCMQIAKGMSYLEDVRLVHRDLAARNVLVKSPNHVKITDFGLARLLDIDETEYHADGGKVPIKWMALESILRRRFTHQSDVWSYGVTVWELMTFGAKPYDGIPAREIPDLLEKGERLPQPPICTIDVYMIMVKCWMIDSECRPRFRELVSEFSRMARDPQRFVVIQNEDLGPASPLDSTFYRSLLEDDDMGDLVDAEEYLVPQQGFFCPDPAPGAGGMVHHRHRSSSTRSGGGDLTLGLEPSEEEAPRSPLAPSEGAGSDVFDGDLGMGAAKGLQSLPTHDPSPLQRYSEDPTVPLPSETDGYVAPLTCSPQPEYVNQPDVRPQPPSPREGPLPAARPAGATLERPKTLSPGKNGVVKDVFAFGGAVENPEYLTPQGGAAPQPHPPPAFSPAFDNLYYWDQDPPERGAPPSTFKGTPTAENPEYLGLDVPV

For the compound `Cc1cc(Nc2ncnc3ccc(NC4=NC(C)(C)CO4)cc23)ccc1Oc1ccn2ncnc2c1` [tucatinib, N^4-(4-([1,2,4]triazolo[1,5-a]pyridin-7-yloxy)-3-methylphenyl)-N^6-(4,4-dimethyl-4,5-dihydrooxazol-2-yl) quinazoline-4,6-diamine], on HER2 [1], the “selectivity for HER2 compared to the closely related kinase EGFR” value is greater than 1000 fold. Besides, the “HER2 total protein levels relative to untreated cell lines” value at HER2 [2] is “increased”. Besides, the “inhibition of HER2 in vitro” value against HER2 [3] was “potent inhibitor of HER2 in vitro”. The “internalization and lysosomal processing of HER2-bound antibody” value on HER2 [4] is “rapid internalization and lysosomal processing”. Further, the “plasma membrane-bound HER2 protein levels relative to untreated cell lines” value on HER2 [5] was “increased”. Also, on HER2 [6], the “dwell time of HER2 at the cell surface” value is recorded as “increased”.
